The text below walks through data of ChEMBL document CHEMBL5614386, “Design, synthesis, and biological evaluation of novel 1-amido-2-one-4-thio-deoxypyranose as potential antitumor agents for multiple myeloma” (Bioorg Med Chem, 2024).

Assay [1] has as its system ARP-1. The assay can be described thus: Anti-proliferative activity against human ARP-1 cells assessed as inhibition cell growth at 5 uM incubated for 72 hrs by CCK-8 assay. The format is functional, cell-based.
Assay [2] concerns NCI-H929. Put plainly: Anti-proliferative activity against human NCI-H929 cells assessed as inhibition cell growth at 5 uM incubated for 72 hrs by CCK-8 assay. The format is functional, cell-based.
Assay [3] relates to NCI-H929. Put plainly: Anti-proliferative activity against human NCI-H929 cells assessed as inhibition cell growth at 5 uM incubated for 72 hrs by CCK-8 assay relative to control. On the set-up: scale not given: the % may be the effect or the level left. The class given is functional.
The nature of assay [4]: Anti-proliferative activity against human ARP-1 cells assessed as inhibition cell growth at 5 uM incubated for 72 hrs by CCK-8 assay relative to control. Details: scale not given: the % may be the effect or the level left. The format is functional.
The nature of assay [5]: Anti-proliferative activity against human ARP-1cells assessed as cell growth inhibition incubated for 72 hrs by CCK-8 assay. The settings on record: ARP-1, 72 h.
For assay [6], the system named is NCI-H929. Put plainly: Anti-proliferative activity against human NCI-H929 cells assessed as cell growth inhibition incubated for 72 hrs by CCK-8 assay. The settings on record: NCI-H929, 72 h.
In assay [7] the test system is NCI-H929. The assay can be described thus: Anti-proliferative activity against human NCI-H929 cells assessed as inhibition cell growth incubated for 72 hrs by CCK-8 assay. The format is functional, cell-based.
Assay [8] has as its system ARP-1. The assay can be described thus: Anti-proliferative activity against human ARP-1 cells assessed as inhibition cell growth incubated for 72 hrs by CCK-8 assay. The format is functional, cell-based.

Molecules are shown by their SMILES. Activity calls are given as the source filed them. The rule behind the calls is not given here.

As to `CC(=O)OC[C@H]1O[C@@H](NC(=O)c2ccc3c(c2)OCO3)C(=O)CC1SCc1ccc(Cl)cc1` (stereo partly specified), the outcome with ARP-1 [1] and in the assay with NCI-H929 [2] was Active.
Regarding `COc1ccc(SC2CC(O)[C@H](NC(=O)c3ccc4c(c3)OCO4)O[C@@H]2COC(C)=O)cc1` (stereo partly specified), the Activity (in the assay on NCI-H929 [3]; in assay [4]) was under 20% in each case.
For the compound `COc1ccc(SC2CC(O)[C@H](NC(=O)c3ccc(OC)cc3)O[C@@H]2COC(C)=O)cc1` (stereo partly specified), the Activity (in the assay on NCI-H929 [3]; in assay [4]) was under 20% in each case.
On to `CC(=O)OC[C@H]1O[C@@H](NC(=O)c2ccc3c(c2)OCO3)C(=O)CC1Sc1ccc(C)cc1` (stereo partly specified), for which the IC50 in assay [5] turned out to be 1560 nM; with NCI-H929 [6], 850 nM. The result with ARP-1 [1] and in the assay on NCI-H929 [2] was Active.
Regarding `CC(=O)OC[C@H]1O[C@@H](NC(=O)c2ccc3c(c2)OCO3)C(=O)CC1SCc1ccc(F)cc1` (stereo partly specified), the result with ARP-1 [1] and in the assay with NCI-H929 [2] was Active.
With `CC(=O)OC[C@H]1O[C@@H](NC(=O)c2ccccc2)C(=O)CC1SCc1ccco1` (stereo partly specified), the result in the assay on ARP-1 [1] and in the assay with NCI-H929 [2] was Active.
On to `COc1ccc(SC2CC(O)[C@H](NC(=O)c3ccc4c(c3)OCO4)O[C@@H]2COC(C)=O)cc1OC` (stereo partly specified), for which the Activity (in the assay on NCI-H929 [3]; in assay [4]) was under 20% each time.
Consider `COc1ccccc1SC1CC(=O)[C@H](NC(=O)c2ccc3c(c2)OCO3)O[C@@H]1COC(C)=O` (stereo partly specified), for which the outcome with ARP-1 [1] and in the assay with NCI-H929 [2] was inactive.
With `COc1ccc(C(=O)N[C@@H]2O[C@H](COC(C)=O)C(Sc3ccc(C)cc3)CC2=O)cc1` (stereo partly specified), the IC50 in assay [5] worked out at 4570 nM; with NCI-H929 [6] it was 1600 nM. Also, the result in the assay with ARP-1 [1] and with NCI-H929 [2] was Active.
As to `CC(=O)OC[C@H]1O[C@@H](NC(=O)c2ccc3c(c2)OCO3)C(=O)CC1SCCc1cnccn1` (stereo partly specified), the outcome with ARP-1 [1] and in the assay on NCI-H929 [2] was Active.
Consider `CNc1ccc(SC2CC(O)[C@H](NC(=O)c3ccc4c(c3)OCO4)O[C@@H]2COC(C)=O)cc1` (stereo partly specified), for which the Activity (in the assay on NCI-H929 [3]; in assay [4]) was under 20% in each case.
Take `COC1CC(=O)[C@H](NC(=O)c2ccc3c(c2)OCO3)O[C@@H]1COC(C)=O` (stereo partly specified): the result in the assay with ARP-1 [1] and in the assay with NCI-H929 [2] was inactive.
For `CC(=O)OC[C@H]1O[C@@H](NC(=O)c2ccccc2)C(=O)CC1Sc1ccc(F)cc1` (stereo partly specified), the outcome in the assay with ARP-1 [1] and in the assay on NCI-H929 [2] was Active.
`CC(=O)OC[C@H]1O[C@@H](NC(=O)c2ccccc2)C(=O)CC1Sc1ccc(Br)cc1` (stereo partly specified): the outcome in the assay on ARP-1 [1] and with NCI-H929 [2] was Active.
As for `CC(=O)OC[C@H]1O[C@@H](NC(=O)c2ccccc2)C(=O)CC1SCCCCCCO` (stereo partly specified), the outcome with ARP-1 [1] and with NCI-H929 [2] was Active.
On to `CC(=O)OC[C@H]1O[C@@H](NC(=O)c2ccc3c(c2)OCO3)C(O)CC1Sc1ccc(C)cc1` (stereo partly specified), for which the Activity (in the assay with NCI-H929 [3]; in assay [4]) was under 20% in each case.
With `COc1ccc(SC2CC(=O)[C@H](NC(=O)c3ccc4c(c3)OCO4)O[C@@H]2COC(C)=O)cc1` (stereo partly specified), the IC50 in assay [5] came out at 1380 nM; in the assay on NCI-H929 [6] it was 1460 nM. The outcome with ARP-1 [1] and in the assay with NCI-H929 [2] was Active.
On to `CNc1ccc(SC2CC(=O)[C@H](NC(=O)c3ccc4c(c3)OCO4)O[C@@H]2COC(C)=O)cc1` (stereo partly specified), for which the result with ARP-1 [1] and in the assay on NCI-H929 [2] was Active.
Take `CC(=O)OC[C@H]1O[C@@H](NC(=O)c2ccccc2)C(=O)CC1Sc1ccc(C)cc1` (stereo partly specified): the result in the assay with ARP-1 [1] and in the assay on NCI-H929 [2] was Active.
Turning to `CC(=O)OC[C@H]1O[C@@H](NC(=O)c2ccccc2)C(O)CC1Sc1ccc(C)cc1` (stereo partly specified), the Activity (in the assay with NCI-H929 [3]; in assay [4]) was under 20% each time.
With `CC(=O)OC[C@H]1O[C@@H](NC(=O)c2ccccc2)C(=O)CC1SCCNC(=O)OC(C)(C)C` (stereo partly specified), the result in the assay with ARP-1 [1] and in the assay on NCI-H929 [2] was Active.
As to `CC(=O)OC[C@H]1O[C@@H](NC(=O)c2ccccc2)C(O)CC1SCc1ccc(F)cc1` (stereo partly specified), the Activity (in the assay with NCI-H929 [3]; in assay [4]) was under 20% each time.
Consider `CC(=O)OC[C@H]1O[C@@H](NC(=O)c2ccc3c(c2)OCO3)C(=O)CC1Sc1cc(C)cc(C)c1` (stereo partly specified), for which the IC50 turned out to be 2290 nM in assay [5] and 1970 nM with NCI-H929 [6]. Besides, the result in the assay with ARP-1 [1] and with NCI-H929 [2] was Active.
As to `COc1ccc(CSC2CC(=O)[C@H](NC(=O)c3ccccc3)O[C@@H]2COC(C)=O)cc1` (stereo partly specified), the outcome in the assay with ARP-1 [1] and with NCI-H929 [2] was Active.
Regarding `CC(=O)OC[C@H]1O[C@@H](NC(=O)c2ccccc2)C(O)CC1Sc1ccc(F)cc1` (stereo partly specified), the Activity (in the assay on NCI-H929 [3]; in assay [4]) was under 20% each time.
In the case of `Cc1ccc(SC2CC(O)[C@H](NC(=O)c3ccc4c(c3)OCO4)O[C@@H]2CO)cc1` (stereo partly specified), the outcome in the assay with NCI-H929 [7] and in the assay with ARP-1 [8] was Active.
As to `CC(=O)OC[C@H]1O[C@@H](NC(=O)c2ccc3c(c2)OCO3)C(O)CC1SCc1ccc(F)cc1` (stereo partly specified), the Activity (in the assay on NCI-H929 [3]; in assay [4]) was under 20% throughout.
As for `COc1ccc(SC2CC(=O)[C@H](NC(=O)c3ccco3)O[C@@H]2COC(C)=O)cc1` (stereo partly specified), the outcome in the assay on ARP-1 [1] and in the assay on NCI-H929 [2] was Active.
As for `CC(=O)OC[C@H]1O[C@@H](NC(=O)c2ccccc2)C(O)CC1Sc1ccc(Br)cc1` (stereo partly specified), the Activity (in the assay with NCI-H929 [3]; in assay [4]) was under 20% throughout.
Consider `CC(=O)OC[C@H]1O[C@@H](NC(=O)c2ccc3c(c2)OCO3)C(=O)CC1SCc1ccco1` (stereo partly specified), for which the IC50 in assay [5] was found to be 2710 nM; in the assay with NCI-H929 [6], 3030 nM. Further, the result with ARP-1 [1] and in the assay with NCI-H929 [2] was Active.
For `COc1ccc(SC2CC(O)[C@H](NC(=O)c3ccc4c(c3)OCO4)O[C@@H]2CO)cc1OC` (stereo partly specified), the result in the assay with NCI-H929 [7] and with ARP-1 [8] was Active.
With `CC(=O)OC[C@H]1O[C@@H](NC(=O)c2ccccc2)C(O)CC1Sc1ccc(Cl)cc1` (stereo partly specified), the Activity (in the assay on NCI-H929 [3]; in assay [4]) was under 20% throughout.
Regarding `COc1ccccc1SC1CC(=O)[C@H](NC(=O)c2ccccc2)O[C@@H]1COC(C)=O` (stereo partly specified), the result with ARP-1 [1] and in the assay on NCI-H929 [2] was Active.
On to `COc1ccc(SC2CC(O)[C@H](NC(=O)c3ccccc3)O[C@@H]2COC(C)=O)cc1` (stereo partly specified), for which the Activity (in the assay with NCI-H929 [3]; in assay [4]) was under 20% throughout.
For `COc1ccc(SC2CC(=O)[C@H](NC(=O)c3ccc(OC)cc3)O[C@@H]2COC(C)=O)cc1` (stereo partly specified), the IC50 in assay [5] was 1410 nM; with NCI-H929 [6] it was 1200 nM. Moreover, the outcome with ARP-1 [1] and with NCI-H929 [2] was Active.
As for `COc1ccc(SC2CC(=O)[C@H](NC(=O)c3ccccc3)O[C@@H]2COC(C)=O)cc1OC` (stereo partly specified), the outcome with ARP-1 [1] and in the assay with NCI-H929 [2] was Active.
Turning to `CC(=O)OC[C@H]1O[C@@H](NC(=O)c2ccccc2)C(=O)CC1SCc1ccc(F)cc1` (stereo partly specified), the outcome with ARP-1 [1] and in the assay on NCI-H929 [2] was Active.
With `CC(=O)OC[C@H]1O[C@@H](NC(=O)c2ccccc2)C(=O)CC1SCc1ccc(C(C)(C)C)cc1` (stereo partly specified), the outcome in the assay with ARP-1 [1] and in the assay with NCI-H929 [2] was Active.
For the compound `CC(=O)OC[C@H]1O[C@@H](NC(=O)c2ccc3c(c2)OCO3)C(O)CC1SCc1ccc(Cl)cc1` (stereo partly specified), the Activity (with NCI-H929 [3]; in assay [4]) was under 20% throughout.
Take `COc1ccc(SC2CC(=O)[C@H](NC(=O)c3ccccc3)O[C@@H]2COC(C)=O)cc1` (stereo partly specified): the outcome in the assay with ARP-1 [1] and in the assay with NCI-H929 [2] was Active.
In the case of `CC(=O)OC[C@H]1O[C@@H](NC(=O)c2ccc3c(c2)OCO3)C(=O)CC1SCc1ccc(C(C)(C)C)cc1` (stereo partly specified), the outcome in the assay with ARP-1 [1] and with NCI-H929 [2] was Active.
With `CC(=O)OC[C@H]1O[C@@H](NC(=O)c2ccccc2)C(=O)CC1SCCc1cnccn1` (stereo partly specified), the result in the assay on ARP-1 [1] and in the assay with NCI-H929 [2] was Active.
Turning to `CC(=O)OC[C@H]1O[C@@H](NC(=O)c2ccccc2)C(=O)CC1Sc1ccc(Cl)cc1` (stereo partly specified), the IC50 in assay [5] was found to be 1040 nM; in the assay on NCI-H929 [6] it was 2680 nM. The outcome in the assay on ARP-1 [1] and with NCI-H929 [2] was Active.
As for `CC(=O)OC[C@H]1O[C@@H](NC(=O)c2ccc3c(c2)OCO3)C(O)CC1SCc1ccco1` (stereo partly specified), the Activity (in the assay on NCI-H929 [3]; in assay [4]) was under 20% throughout.
`CC(=O)OC[C@H]1O[C@@H](NC(=O)c2ccc3c(c2)OCO3)C(O)CC1Sc1cc(C)cc(C)c1` (stereo partly specified): the Activity (in the assay with NCI-H929 [3]; in assay [4]) was under 20% in each case.
Turning to `COc1ccc(CSC2CC(O)[C@H](NC(=O)c3ccccc3)O[C@@H]2COC(C)=O)cc1` (stereo partly specified), the Activity (with NCI-H929 [3]; in assay [4]) was under 20% throughout.
For the compound `COc1ccc(CSC2CC(=O)[C@H](NC(=O)c3ccc4c(c3)OCO4)O[C@@H]2COC(C)=O)cc1` (stereo partly specified), the outcome with ARP-1 [1] and with NCI-H929 [2] was Active.
As for `CC(=O)OC[C@H]1O[C@@H](NC(=O)c2ccc3c(c2)OCO3)C(=O)CC1SCCNC(=O)OC(C)(C)C` (stereo partly specified), the outcome in the assay with ARP-1 [1] and in the assay with NCI-H929 [2] was Active.
For `CC(=O)OC[C@H]1O[C@@H](NC(=O)c2ccccc2)C(=O)CC1SCc1ccc(Cl)cc1` (stereo partly specified), the outcome in the assay with ARP-1 [1] and in the assay on NCI-H929 [2] was Active.
In the case of `CC(=O)OC[C@H]1O[C@@H](NC(=O)c2ccc3c(c2)OCO3)C(=O)CC1SCCCCCCO` (stereo partly specified), the result with ARP-1 [1] and in the assay with NCI-H929 [2] was Active.
On to `CC(=O)OC[C@H]1O[C@@H](NC(=O)c2ccc3c(c2)OCO3)C(=O)CC1SC1CCCC1` (stereo partly specified), for which the result with ARP-1 [1] and with NCI-H929 [2] was inactive.
